Values of other authors as cited in patent US9370574B2, “Composite absorbable/biodegradable rings for controlled drug delivery” (Poly-Med, Inc., priority 2003, dated 2016).

What was measured:
[1] = tested on: cervical intraepithelial neoplasia (CIN); conditions: collagen sponge in cervical cap
bacterial vaginosis [2] = conditions: 5 gm gel (0.75%) twice-daily for 5 days
bacterial vaginosis [3] = tested on: bacterial vaginosis
[4] = tested on: post-irradiation vaginal carcinoma in-situ; conditions: 20% 5-FU over monthly 5-day courses
[5] = tested on: Human Papillomavirus (HPV)-associated lesions of the vulva and vagina; conditions: biweekly doses of 5% cream for six months following ablative treatment

CC1=C(/C=C/C(C)=C/C=C/C(C)=C/C(=O)O)C(C)(C)CCC1 [RA, all-trans-retinoic acid]
complete histologic regression of CIN II ([1]; locally applied daily for 4 days): 43%
treatment effect in severe dysplasia (CIN III) ([1]; locally applied): No treatment effect

Cc1ncc([N+](=O)[O-])n1CCO [metronidazole]
clinical cure rate (bacterial vaginosis [2]; after 9 to 21 days): 87%
recurrence rate (bacterial vaginosis [2]; after one month): 15%
failure rate after one month, high dose (bacterial vaginosis [3]; high dose sponge (one gram once-daily for three days)): 12%
cure rate (bacterial vaginosis [3]; intravaginal sponges, 250 mg twice-daily two days or one gram once-daily three days, after one week): 85%
failure rate after one month, low dose (bacterial vaginosis [3]; low dose sponge (250 mg twice-daily for two days)): 42%

O=c1[nH]cc(F)c(=O)[nH]1 [Type 5-FU, 5-flurouracil]
initial complete response [4]: seven of the eight
recurrences [5]: 13%
